According to publication PMC6407917, “Identification of GSK3186899/DDD853651 as a Preclinical Development Candidate for the Treatment of Visceral Leishmaniasis” (Journal of Medicinal Chemistry, 2018):

How the values were obtained:
Experiment in all cases: biochemical
Design in all cases: species or system HEK293/K-562/placenta mixed human extract; Kinobeads chemoproteomic competition binding, quantified by TMT LC-MS/MS, dose response up to 20 uM
MAPK11 = MAPK11 (Homo sapiens, UniProt Q15759)
MYLK = MYLK (Homo sapiens, UniProt Q15746)
MYLK, sequence (Q15746 whole entry): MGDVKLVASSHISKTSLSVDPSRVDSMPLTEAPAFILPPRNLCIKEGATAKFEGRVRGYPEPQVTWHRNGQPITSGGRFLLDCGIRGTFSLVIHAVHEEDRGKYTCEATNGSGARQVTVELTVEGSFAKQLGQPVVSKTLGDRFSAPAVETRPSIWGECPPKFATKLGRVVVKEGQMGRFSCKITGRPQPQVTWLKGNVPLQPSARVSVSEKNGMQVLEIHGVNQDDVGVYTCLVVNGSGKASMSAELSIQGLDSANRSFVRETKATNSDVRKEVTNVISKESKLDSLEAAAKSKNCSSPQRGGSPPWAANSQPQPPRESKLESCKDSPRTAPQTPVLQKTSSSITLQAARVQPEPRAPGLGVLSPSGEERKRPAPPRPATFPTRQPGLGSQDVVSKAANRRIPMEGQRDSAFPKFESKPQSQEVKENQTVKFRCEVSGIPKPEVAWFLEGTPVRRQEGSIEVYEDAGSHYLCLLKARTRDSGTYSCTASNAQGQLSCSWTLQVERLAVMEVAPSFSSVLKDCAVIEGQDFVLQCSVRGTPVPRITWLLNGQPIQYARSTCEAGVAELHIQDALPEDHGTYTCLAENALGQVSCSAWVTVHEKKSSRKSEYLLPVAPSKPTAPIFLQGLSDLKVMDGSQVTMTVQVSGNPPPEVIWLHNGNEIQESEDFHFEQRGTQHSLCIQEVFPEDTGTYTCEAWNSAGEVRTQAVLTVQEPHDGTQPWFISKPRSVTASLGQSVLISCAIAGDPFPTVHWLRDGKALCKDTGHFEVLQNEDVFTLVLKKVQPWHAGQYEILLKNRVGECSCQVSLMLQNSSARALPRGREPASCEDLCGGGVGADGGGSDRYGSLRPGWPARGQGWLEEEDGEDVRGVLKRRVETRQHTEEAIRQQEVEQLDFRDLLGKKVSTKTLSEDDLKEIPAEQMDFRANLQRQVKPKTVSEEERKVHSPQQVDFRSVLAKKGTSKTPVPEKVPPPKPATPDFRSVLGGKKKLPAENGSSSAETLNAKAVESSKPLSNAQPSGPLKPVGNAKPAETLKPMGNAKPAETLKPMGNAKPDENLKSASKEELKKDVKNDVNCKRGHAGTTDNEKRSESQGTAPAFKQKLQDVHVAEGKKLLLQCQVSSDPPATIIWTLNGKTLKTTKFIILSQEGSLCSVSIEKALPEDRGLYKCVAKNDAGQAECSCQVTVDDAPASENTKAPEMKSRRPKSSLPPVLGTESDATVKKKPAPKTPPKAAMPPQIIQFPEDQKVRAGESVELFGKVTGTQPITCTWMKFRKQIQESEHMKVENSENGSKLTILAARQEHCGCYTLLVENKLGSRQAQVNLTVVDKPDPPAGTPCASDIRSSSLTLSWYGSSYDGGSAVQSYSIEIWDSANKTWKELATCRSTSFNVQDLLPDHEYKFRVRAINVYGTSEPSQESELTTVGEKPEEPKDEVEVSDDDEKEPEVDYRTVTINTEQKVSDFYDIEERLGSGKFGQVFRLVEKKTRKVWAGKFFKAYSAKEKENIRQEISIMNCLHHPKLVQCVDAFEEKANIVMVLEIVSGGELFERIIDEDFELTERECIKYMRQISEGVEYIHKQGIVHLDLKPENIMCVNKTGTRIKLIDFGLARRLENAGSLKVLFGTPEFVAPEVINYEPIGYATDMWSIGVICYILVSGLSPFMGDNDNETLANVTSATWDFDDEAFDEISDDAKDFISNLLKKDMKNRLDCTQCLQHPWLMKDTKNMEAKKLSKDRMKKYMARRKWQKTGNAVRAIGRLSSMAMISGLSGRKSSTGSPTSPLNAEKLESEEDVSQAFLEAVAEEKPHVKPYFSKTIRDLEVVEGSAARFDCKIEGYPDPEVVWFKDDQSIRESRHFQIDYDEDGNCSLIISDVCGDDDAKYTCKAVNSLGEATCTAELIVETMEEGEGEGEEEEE

PKN2 = PKN2 (Homo sapiens, UniProt Q16513)
FRK = FRK (Homo sapiens, UniProt P42685)
FRK, sequence (P42685 whole entry): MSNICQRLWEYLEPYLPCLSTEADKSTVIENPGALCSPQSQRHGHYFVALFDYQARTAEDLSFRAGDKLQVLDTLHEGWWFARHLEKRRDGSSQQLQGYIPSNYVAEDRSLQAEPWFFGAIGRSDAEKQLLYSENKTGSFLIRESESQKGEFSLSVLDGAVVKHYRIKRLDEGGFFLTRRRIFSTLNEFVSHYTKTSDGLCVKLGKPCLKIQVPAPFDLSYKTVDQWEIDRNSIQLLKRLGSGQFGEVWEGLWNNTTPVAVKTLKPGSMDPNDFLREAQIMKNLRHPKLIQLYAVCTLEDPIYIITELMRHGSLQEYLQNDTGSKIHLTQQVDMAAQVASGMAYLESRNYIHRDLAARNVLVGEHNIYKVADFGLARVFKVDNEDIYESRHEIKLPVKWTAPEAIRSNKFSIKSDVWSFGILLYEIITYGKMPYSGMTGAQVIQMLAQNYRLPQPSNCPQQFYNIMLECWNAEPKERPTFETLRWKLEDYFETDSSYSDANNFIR

STK10 = STK10 (Homo sapiens, UniProt O94804)
AZI2 = AZI2 (Homo sapiens, UniProt Q9H6S1)
MAP2K3 = MAP2K3 (Homo sapiens, UniProt P46734)
RPS6KA6 = RPS6KA6 (Homo sapiens, UniProt Q9UK32)
CDC42BPB = CDC42BPB (Homo sapiens, UniProt Q9Y5S2)
PRKCB = PRKCB (Homo sapiens, UniProt P05771)
MERTK = MERTK (Homo sapiens, UniProt Q12866)
MAP3K6 = MAP3K6 (Homo sapiens, UniProt O95382)
CDKL5 = CDKL5 (Homo sapiens, UniProt O76039)
TNIK = TNIK (Homo sapiens, UniProt Q9UKE5)
TAOK2 = TAOK2 (Homo sapiens, UniProt Q9UL54)
TAOK2, sequence (Q9UL54 whole entry): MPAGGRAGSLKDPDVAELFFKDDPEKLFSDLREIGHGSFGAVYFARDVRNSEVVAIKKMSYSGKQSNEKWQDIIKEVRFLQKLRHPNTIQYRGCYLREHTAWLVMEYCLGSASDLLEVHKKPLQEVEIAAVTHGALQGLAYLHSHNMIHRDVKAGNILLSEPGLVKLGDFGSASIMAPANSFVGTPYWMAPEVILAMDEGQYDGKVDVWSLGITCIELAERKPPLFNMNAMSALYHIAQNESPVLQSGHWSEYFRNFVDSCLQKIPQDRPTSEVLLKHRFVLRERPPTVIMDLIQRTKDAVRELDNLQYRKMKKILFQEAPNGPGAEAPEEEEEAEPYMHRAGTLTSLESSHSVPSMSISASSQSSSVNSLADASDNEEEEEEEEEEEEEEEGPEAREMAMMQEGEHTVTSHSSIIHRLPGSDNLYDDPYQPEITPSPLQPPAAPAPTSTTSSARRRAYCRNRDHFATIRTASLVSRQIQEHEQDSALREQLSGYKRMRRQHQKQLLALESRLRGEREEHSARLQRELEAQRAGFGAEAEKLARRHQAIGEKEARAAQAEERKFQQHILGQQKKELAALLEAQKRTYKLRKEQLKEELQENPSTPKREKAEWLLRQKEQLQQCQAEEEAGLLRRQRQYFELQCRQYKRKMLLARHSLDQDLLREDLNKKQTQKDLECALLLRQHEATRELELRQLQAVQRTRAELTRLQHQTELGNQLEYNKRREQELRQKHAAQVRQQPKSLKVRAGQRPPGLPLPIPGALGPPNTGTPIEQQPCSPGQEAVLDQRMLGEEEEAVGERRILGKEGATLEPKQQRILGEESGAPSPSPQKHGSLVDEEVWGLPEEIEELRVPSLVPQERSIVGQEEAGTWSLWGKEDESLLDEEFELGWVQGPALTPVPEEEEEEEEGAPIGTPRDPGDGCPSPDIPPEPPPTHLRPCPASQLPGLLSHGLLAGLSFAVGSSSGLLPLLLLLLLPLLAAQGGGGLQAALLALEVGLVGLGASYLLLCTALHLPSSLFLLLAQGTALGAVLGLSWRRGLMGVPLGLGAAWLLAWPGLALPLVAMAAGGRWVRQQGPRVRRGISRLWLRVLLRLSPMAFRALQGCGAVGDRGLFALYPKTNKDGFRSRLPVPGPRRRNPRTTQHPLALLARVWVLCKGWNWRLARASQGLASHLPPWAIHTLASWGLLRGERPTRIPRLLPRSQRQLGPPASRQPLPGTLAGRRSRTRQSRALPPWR

CSNK2A1 = CSNK2A1 (Homo sapiens, UniProt P68400)
TNK1 = TNK1 (Homo sapiens, UniProt Q13470)
MAST3 = MAST3 (Homo sapiens, UniProt O60307)
ROCK2 = ROCK2 (Homo sapiens, UniProt O75116)
MAP4K5 = MAP4K5 (Homo sapiens, UniProt Q9Y4K4)
MAP4K5, sequence (Q9Y4K4 whole entry): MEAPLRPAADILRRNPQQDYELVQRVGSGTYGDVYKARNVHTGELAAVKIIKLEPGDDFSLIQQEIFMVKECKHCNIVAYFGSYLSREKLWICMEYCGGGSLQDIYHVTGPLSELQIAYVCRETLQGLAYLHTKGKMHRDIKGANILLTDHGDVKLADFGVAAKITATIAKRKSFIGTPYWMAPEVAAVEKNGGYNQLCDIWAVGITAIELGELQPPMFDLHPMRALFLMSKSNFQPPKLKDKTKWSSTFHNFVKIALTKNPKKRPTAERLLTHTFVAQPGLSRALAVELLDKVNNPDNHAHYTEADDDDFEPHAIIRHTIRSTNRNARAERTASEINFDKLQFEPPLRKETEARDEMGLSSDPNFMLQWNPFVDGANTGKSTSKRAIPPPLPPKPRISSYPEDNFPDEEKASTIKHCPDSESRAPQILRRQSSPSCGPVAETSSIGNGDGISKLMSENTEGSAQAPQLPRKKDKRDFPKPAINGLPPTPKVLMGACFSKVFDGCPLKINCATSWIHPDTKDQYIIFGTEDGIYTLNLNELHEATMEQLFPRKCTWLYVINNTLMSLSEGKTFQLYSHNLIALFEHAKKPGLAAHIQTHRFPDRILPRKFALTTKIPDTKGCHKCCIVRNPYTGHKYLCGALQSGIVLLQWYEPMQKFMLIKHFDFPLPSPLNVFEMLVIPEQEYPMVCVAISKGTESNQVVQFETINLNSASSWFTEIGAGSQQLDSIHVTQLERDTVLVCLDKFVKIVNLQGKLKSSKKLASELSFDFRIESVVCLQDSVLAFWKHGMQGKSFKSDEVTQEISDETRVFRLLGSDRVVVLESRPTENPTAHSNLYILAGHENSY

MAP3K5 = MAP3K5 (Homo sapiens, UniProt Q99683)

Measured: IC50

MAPK11, sequence (Q15759 whole entry): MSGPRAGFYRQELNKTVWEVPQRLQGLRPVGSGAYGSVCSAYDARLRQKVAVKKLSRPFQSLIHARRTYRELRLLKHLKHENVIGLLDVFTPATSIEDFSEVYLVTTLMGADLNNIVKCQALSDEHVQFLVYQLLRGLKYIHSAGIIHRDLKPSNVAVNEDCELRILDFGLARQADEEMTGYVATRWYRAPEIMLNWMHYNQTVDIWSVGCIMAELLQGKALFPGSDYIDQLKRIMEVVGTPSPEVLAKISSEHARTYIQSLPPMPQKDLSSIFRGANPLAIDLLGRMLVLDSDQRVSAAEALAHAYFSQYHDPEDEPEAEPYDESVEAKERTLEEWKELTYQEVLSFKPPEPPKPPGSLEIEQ

COc1nc(N[C@H]2CC[C@H](NS(=O)(=O)CC(C)C)CC2)nc2[nH]nc(N3CCOC[C@H]3C)c12 [compound 39, N-(trans-4-((4-Methoxy-3-((R)-3-methylmorpholino)-1H-pyrazolo[3,4-d]pyrimidin-6-yl)amino)cyclohexyl)-2-methylpropane-1-sulfonamide]
≥ 20 µM: all assays above
